# Reference: patent US10981905B2, “Heteroaryl-substituted sulfonamide compounds and their use as therapeutic agents” (Xenon Pharmaceuticals Inc., priority 2018, dated 2021)
# Where a name gives a salt, the structure may show the parent alone. Read-outs that look alike come from different tables or passages of the source.
# Columns and labels:
# Nav1.6 = Nav1.6 (Homo sapiens (Human), UniProt Q9UQD0); assay: Sodium Influx Assay (Flux), Nav1.6; type: cell-based; conditions: Trex HEK293 cells, ANG2 dye, inactivated state
# Nav1.5 = Nav1.5 (Homo sapiens (Human), UniProt Q14524); assay: Sodium Influx Assay (Flux), Nav1.5
# Sequence of Nav1.5 (Q14524 other isoform, or with tags, fused parts or gaps): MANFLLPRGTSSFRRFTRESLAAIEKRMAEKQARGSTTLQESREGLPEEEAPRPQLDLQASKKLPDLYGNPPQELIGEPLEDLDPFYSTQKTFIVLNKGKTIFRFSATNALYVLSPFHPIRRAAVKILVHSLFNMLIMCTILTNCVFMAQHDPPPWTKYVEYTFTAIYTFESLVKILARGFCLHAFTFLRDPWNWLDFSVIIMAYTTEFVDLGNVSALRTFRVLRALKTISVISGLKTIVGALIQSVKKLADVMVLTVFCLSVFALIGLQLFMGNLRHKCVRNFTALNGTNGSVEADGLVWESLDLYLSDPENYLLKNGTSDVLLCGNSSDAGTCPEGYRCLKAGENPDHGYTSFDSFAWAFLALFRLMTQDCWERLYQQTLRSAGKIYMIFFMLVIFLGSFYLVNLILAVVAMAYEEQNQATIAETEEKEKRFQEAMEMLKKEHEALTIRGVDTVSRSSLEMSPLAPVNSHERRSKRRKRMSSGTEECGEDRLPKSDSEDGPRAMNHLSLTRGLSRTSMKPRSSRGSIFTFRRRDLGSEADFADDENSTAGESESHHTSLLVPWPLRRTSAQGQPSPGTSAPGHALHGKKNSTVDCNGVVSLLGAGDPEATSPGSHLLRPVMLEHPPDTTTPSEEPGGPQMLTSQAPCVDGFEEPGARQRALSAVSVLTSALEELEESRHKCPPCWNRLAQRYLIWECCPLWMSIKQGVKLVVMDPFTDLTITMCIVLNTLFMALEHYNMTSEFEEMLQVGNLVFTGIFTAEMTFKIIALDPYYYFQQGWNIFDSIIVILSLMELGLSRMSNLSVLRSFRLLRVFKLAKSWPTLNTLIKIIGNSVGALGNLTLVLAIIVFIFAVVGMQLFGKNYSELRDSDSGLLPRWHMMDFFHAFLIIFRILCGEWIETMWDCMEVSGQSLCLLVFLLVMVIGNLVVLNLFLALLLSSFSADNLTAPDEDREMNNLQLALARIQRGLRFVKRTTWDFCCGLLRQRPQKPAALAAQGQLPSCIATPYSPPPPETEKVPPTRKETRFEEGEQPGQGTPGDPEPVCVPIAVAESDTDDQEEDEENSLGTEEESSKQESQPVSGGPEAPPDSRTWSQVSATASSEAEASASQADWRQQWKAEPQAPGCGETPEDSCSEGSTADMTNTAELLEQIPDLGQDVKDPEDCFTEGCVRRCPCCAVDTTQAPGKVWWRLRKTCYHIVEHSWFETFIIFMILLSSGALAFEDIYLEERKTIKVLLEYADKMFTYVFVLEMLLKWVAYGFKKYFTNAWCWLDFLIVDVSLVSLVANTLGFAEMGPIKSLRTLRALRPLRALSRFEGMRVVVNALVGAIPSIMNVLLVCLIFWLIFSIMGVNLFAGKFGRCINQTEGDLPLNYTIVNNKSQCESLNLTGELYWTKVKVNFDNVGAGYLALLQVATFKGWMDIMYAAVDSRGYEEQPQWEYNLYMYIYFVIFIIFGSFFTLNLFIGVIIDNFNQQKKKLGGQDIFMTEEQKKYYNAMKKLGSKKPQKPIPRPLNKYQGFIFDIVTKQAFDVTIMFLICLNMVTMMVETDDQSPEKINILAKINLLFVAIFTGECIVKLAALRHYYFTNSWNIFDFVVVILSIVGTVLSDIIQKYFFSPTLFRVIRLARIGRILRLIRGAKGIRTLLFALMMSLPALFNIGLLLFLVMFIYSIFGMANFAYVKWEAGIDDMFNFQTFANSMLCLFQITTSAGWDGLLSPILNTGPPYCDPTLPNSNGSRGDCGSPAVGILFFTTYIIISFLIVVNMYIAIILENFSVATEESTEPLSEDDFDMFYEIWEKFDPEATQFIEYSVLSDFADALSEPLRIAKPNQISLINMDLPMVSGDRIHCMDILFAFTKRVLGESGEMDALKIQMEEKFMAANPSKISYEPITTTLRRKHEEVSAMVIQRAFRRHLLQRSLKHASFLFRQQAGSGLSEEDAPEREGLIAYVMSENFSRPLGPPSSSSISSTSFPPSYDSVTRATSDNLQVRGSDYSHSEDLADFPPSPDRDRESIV
# Nav1.1 = Nav1.1 (Homo sapiens (Human), UniProt P35498); assay: Sodium Influx Assay (Flux), Nav1.1; type: cell-based; conditions: Trex HEK293 cells, ANG2 dye, inactivated state
# [1] = read-out: Flux NaV1.5 IC50, sodium influx assay, Trex HEK293 cells, ANG2 dye, inactivated state
SMILES,IC50 (Nav1.6),IC50 (Nav1.1),IC50 (Nav1.5; [1]),IC50 (Nav1.5)
"O=S(=O)(Nc1cscn1)c1ccc(NCc2c(F)cccc2CN2CCCC2)c(C(F)F)n1 [Example 18, 6-(difluoromethyl)-5-((2-fluoro-6-(pyrrolidin-1-ylmethyl)benzyl)amino)-N-(thiazol-4-yl)pyridine-2-sulfonamide formic acid salt]",0.015 µM,15.5 µM,21.4 µM,–
"Cc1nc(S(=O)(=O)Nc2cscn2)c(F)cc1NCc1cccc(C(F)(F)F)c1CN1C2CCC1CC2 [Example 37, 5-((2-((7-azabicyclo[2.2.1]heptan-7-yl)methyl)-3-(trifluoromethyl)benzyl)amino)-3-fluoro-6-methyl-N-(thiazol-4-yl)pyridine-2-sulfonamide trifluoroacetic acid salt]",5.92 µM,8.7 µM,–,≥ 30 µM
"Cc1cc(S(=O)(=O)Nc2ccsn2)ncc1NCc1c(F)cccc1CN1CCC1 [Example 12, 5-((2-(azetidin-1-ylmethyl)-6-fluorobenzyl)amino)-N-(isothiazol-3-yl)-4-methylpyridine-2-sulfonamide trifluoroacetic acid salt]",3.43 µM,30 µM,30 µM,–
"Cc1nc(S(=O)(=O)Nc2cscn2)ccc1NCc1c(F)cccc1CN1CCCC1 [Example 30, 5-((2-fluoro-6-(pyrrolidin-1-ylmethyl)benzyl)amino)-6-methyl-N-(thiazol-4-yl)pyridine-2-sulfonamide trifluoroacetic acid salt]",0.111 µM,30 µM,30 µM,–
"O=S(=O)(Nc1cscn1)c1cc(C(F)(F)F)c(NCc2c(F)cccc2CN2CCC2)cn1 [Example 31, 5-((2-(azetidin-1-ylmethyl)-6-fluorobenzyl)amino)-N-(thiazol-4-yl)-4-(trifluoromethyl)pyridine-2-sulfonamide]",1.5 µM,30 µM,30 µM,–
"O=S(=O)(Nc1cccc(F)n1)c1cnc(NCc2c(F)cccc2CN2CCCC2)c(Cl)c1 [Example 42, 5-chloro-6-((2-fluoro-6-(pyrrolidin-1-ylmethyl)benzyl)amino)-N-(6-fluoropyridin-2-yl)pyridine-3-sulfonamide trifluoroacetic acid salt]",4.47 µM,6.29 µM,9.11 µM,–
"C[C@H](Nc1ncc(S(=O)(=O)Nc2cscn2)cc1Cl)c1cc(Cl)ccc1F [Example 1, (S)-5-chloro-6-((1-(5-chloro-2-fluorophenyl)ethyl)amino)-N-(thiazol-4-yl)pyridine-3-sulfonamide]",2.82 µM,5 µM,5.57 µM,–
"Cc1cc(S(=O)(=O)Nc2cscn2)ncc1NCc1c(F)cccc1CN1CCC1 [Example 7, 5-((2-(azetidin-1-ylmethyl)-6-fluorobenzyl)amino)-4-methyl-N-(thiazol-4-yl)pyridine-2-sulfonamide formic acid salt]",5.82 µM,30 µM,30 µM,–
"Cc1nc(S(=O)(=O)Nc2cscn2)ccc1N[C@@H](C)c1ccccc1F [Example 3, (S)-5-((1-(2-fluorophenyl)ethyl)amino)-6-methyl-N-(thiazol-4-yl)pyridine-2-sulfonamide]",4.74 µM,30 µM,30 µM,–
"Cc1cc(S(=O)(=O)Nc2cccc(F)n2)ncc1NCc1c(F)cccc1CN1CCC1 [Example 9, 5-((2-(azetidin-1-ylmethyl)-6-fluorobenzyl)amino)-N-(6-fluoropyridin-2-yl)-4-methylpyridine-2-sulfonamide]",0.917 µM,30 µM,21.1 µM,–
"Cc1nc(S(=O)(=O)Nc2cscn2)ccc1NCc1cccc2ccncc12 [Example 16, 5-((isoquinolin-8-ylmethyl)amino)-6-methyl-N-(thiazol-4-yl)pyridine-2-sulfonamide formic acid salt]",1.27 µM,30 µM,30 µM,–
"Cc1nc(S(=O)(=O)Nc2cscn2)ccc1NCc1ccccc1CN(C)C(C)(C)C [Example 28, 5-((2-((tert-butyl(methyl)amino)methyl)benzyl)amino)-6-methyl-N-(thiazol-4-yl)pyridine-2-sulfonamide trifluoroacetic acid salt]",0.782 µM,≥ 30 µM,–,≥ 30 µM
"O=S(=O)(Nc1cscn1)c1ccc(NCc2c(F)cccc2CN2CCC2)nc1 [Example 5, 6-((2-(azetidin-1-ylmethyl)-6-fluorobenzyl)amino)-N-(thiazol-4-yl)pyridine-3-sulfonamide]",8.47 µM,30 µM,26.5 µM,–
"O=S(=O)(Nc1cscn1)c1ccc(NCc2c(F)ccc(F)c2CN2CCCC2)n2ccnc12 [Example 44, 5-((3,6-difluoro-2-(pyrrolidin-1-ylmethyl)benzyl)amino)-N-(thiazol-4-yl)imidazo[1,2-a]pyridine-8-sulfonamide trifluoroacetic acid salt]",0.171 µM,20.2 µM,8.85 µM,–
"Cc1nc(S(=O)(=O)Nc2ccon2)c(F)cc1NCc1ccccc1CN(C)C(C)(C)C [Example 46, 5-((2-((tert-butyl(methyl)amino)methyl)benzyl)amino)-3-fluoro-N-(isoxazol-3-yl)-6-methylpyridine-2-sulfonamide trifluoroacetic acid salt]",1.78 µM,≥ 30 µM,–,≥ 30 µM

# Now from value to compound, other results behind:
IC50 (Nav1.6),IC50 (Nav1.1),SMILES,IC50 (Nav1.5; [1]),IC50 (Nav1.5)
0.286 µM,30 µM,"Cc1nc(S(=O)(=O)Nc2cscn2)ccc1NCc1c(F)cccc1CN(C)CC1CC1 [Example 15, 5-((2-(((cyclopropylmethyl)(methyl)amino)methyl)-6-fluorobenzyl)amino)-6-methyl-N-(thiazol-4-yl)pyridine-2-sulfonamide formic acid salt]",21.6 µM,–
0.719 µM,30 µM,"Cc1nc(S(=O)(=O)Nc2cscn2)ccc1NCc1c(F)cccc1CN1CCC1(C)C [Example 8, 5-((2-((2,2-dimethylazetidin-1-yl)methyl)-6-fluorobenzyl)amino)-6-methyl-N-(thiazol-4-yl)pyridine-2-sulfonamide trifluoroacetic acid salt]",30 µM,–
5.31 µM,23.6 µM,"Cc1nc(NCc2c(F)cccc2CN(C)C(C)(C)C)ccc1S(=O)(=O)Nc1cscn1 [Example 10, 6-((2-((tert-butyl(methyl)amino)methyl)-6-fluorobenzyl)amino)-2-methyl-N-(thiazol-4-yl)pyridine-3-sulfonamide formic acid salt]",7.76 µM,–
0.037 µM,≥ 30 µM,"Cc1nc(S(=O)(=O)Nc2cscn2)c(F)cc1NCc1ccccc1CN(C)C(C)(C)C [Example 34, 5-((2-((tert-butyl(methyl)amino)methyl)benzyl)amino)-3-fluoro-6-methyl-N-(thiazol-4-yl)pyridine-2-sulfonamide formic acid salt]",–,≥ 30 µM
11.3 µM,14.9 µM,"Cc1cc(S(=O)(=O)Nc2cscn2)cnc1NCc1c(F)cccc1CN(C)C(C)(C)C [Example 13, 6-((2-((tert-butyl(methyl)amino)methyl)-6-fluorobenzyl)amino)-5-methyl-N-(thiazol-4-yl)pyridine-3-sulfonamide formic acid salt]",6.02 µM,–
0.272 µM,16.7 µM,"Cc1nc(S(=O)(=O)Nc2cccc(F)n2)c(F)cc1NCc1ccccc1CN(C)C(C)(C)C [Example 32, 5-((2-((tert-butyl(methyl)amino)methyl)benzyl)amino)-3-fluoro-N-(6-fluoropyridin-2-yl)-6-methylpyridine-2-sulfonamide trifluoroacetic acid salt]",30 µM,–
0.382 µM,13 µM,"Cc1nc(S(=O)(=O)Nc2cscn2)ccc1NCc1c(F)cccc1CN1CC(C)(F)C1 [Example 14, 5-((2-fluoro-6-((3-fluoro-3-methylazetidin-1-yl)methyl)benzyl)amino)-6-methyl-N-(thiazol-4-yl)pyridine-2-sulfonamide]",24.5 µM,–
1.93 µM,30 µM,"Cc1c(NCc2c(F)cccc2CN(C)C(C)C)cnc(S(=O)(=O)Nc2cccc(F)n2)c1F [Example 45, 3-fluoro-5-((2-fluoro-6-((isopropyl(methyl)amino)methyl)benzyl)amino)-N-(6-fluoropyridin-2-yl)-4-methylpyridine-2-sulfonamide]",30 µM,–
0.024 µM,10.5 µM,"Cc1nc(S(=O)(=O)Nc2cscn2)c(F)cc1NCc1c(F)cccc1CN(C)C(C)C [Example 35, 3-fluoro-5-((2-fluoro-6-((isopropyl(methyl)amino)methyl)benzyl)amino)-6-methyl-N-(thiazol-4-yl)pyridine-2-sulfonamide trifluoroacetic acid salt]",–,≥ 30 µM
8.37 µM,11.7 µM,"CN(Cc1cccc(F)c1CNc1ncc(S(=O)(=O)Nc2cscn2)cc1Cl)C(C)(C)C [Example 11, 6-((2-((tert-butyl(methyl)amino)methyl)-6-fluorobenzyl)amino)-5-chloro-N-(thiazol-4-yl)pyridine-3-sulfonamide formic acid salt]",8.87 µM,–
0.074 µM,30 µM,"Cc1nc(S(=O)(=O)Nc2cscn2)ccc1NCc1c(F)cccc1CN1CC(C)C1 [Example 24, 5-((2-fluoro-6-((3-methylazetidin-1-yl)methyl)benzyl)amino)-6-methyl-N-(thiazol-4-yl)pyridine-2-sulfonamide]",30 µM,–
0.078 µM,3.75 µM,"CN(Cc1cccc(F)c1CNc1cc(F)c(S(=O)(=O)Nc2cscn2)nc1C1CC1)C(C)(C)C [Example 49, 5-((2-((tert-butyl(methyl)amino)methyl)-6-fluorobenzyl)amino)-6-cyclopropyl-3-fluoro-N-(thiazol-4-yl)pyridine-2-sulfonamide]",7.5 µM,–
